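A five-concentration, 48-hour dose response in 96-well plates underlies each endpoint, interpolated linearly between surrounding concentrations. Here, GI50 denotes the concentration required for 50% inhibition of growth.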 Calls of active or inactive are those of the source. Rule as the data show it: active = GI50 up to about 1.1 µM and inactive = higher.
Columns and labels:
Assay in all cases: NCI anticancer screen, dose series, 48 h
A498 = test system: A498
CAKI-1 = test system: CAKI-1
COLO 205 = test system: COLO 205
HOP-92 = test system: HOP-92
K562 = test system: K562
KM12 = test system: KM12
M14 = test system: M14
MOLT-4 = test system: MOLT-4
Malme-3M = test system: Malme-3M
SF-295 = test system: SF-295
SF-539 = test system: SF-539
SK-MEL-2 = test system: SK-MEL-2
SK-OV-3 = test system: SK-OV-3
SNB-75 = test system: SNB-75
UACC-62 = test system: UACC-62
NCI-H226 = test system: NCI-H226
NCI-H23 = test system: NCI-H23

Measured: GI50

S=c1sc2sc(=S)sc2s1
inactive: A498 23.5 µM | CAKI-1 > 100 µM | COLO 205 84.9 µM | HOP-92 57.9 µM | K562 22.3 µM | KM12 > 100 µM | M14 21.1 µM | MOLT-4 28.8 µM | Malme-3M > 100 µM | SF-295 20.6 µM | SF-539 23.9 µM | SK-MEL-2 > 100 µM | SK-OV-3 19.6 µM | SNB-75 35.5 µM | UACC-62 37.2 µM

Cn1cc(C(=O)c2ccccc2)c2ccccc2c1=O
inactive: CAKI-1 50.6 µM | COLO 205 > 100 µM | HOP-92 62.8 µM | KM12 > 100 µM | M14 > 100 µM | MOLT-4 > 100 µM | Malme-3M > 100 µM | SF-295 93.5 µM | SF-539 > 100 µM | SK-MEL-2 > 100 µM | SK-OV-3 > 100 µM | SNB-75 23.4 µM | UACC-62 49.2 µM

Cc1cc2c(=O)c(C)n[nH]c2c(C#N)c1C
inactive: COLO 205 > 100 µM | HOP-92 29.4 µM | MOLT-4 > 100 µM | Malme-3M > 100 µM | NCI-H226 > 100 µM | NCI-H23 > 100 µM | SF-295 > 100 µM | SF-539 > 100 µM | SK-MEL-2 > 10 µM | SK-OV-3 > 100 µM | SNB-75 > 100 µM | UACC-62 > 100 µM

CSC1=Nc2ccccc2N=C(c2ccc(Cl)cc2)C1
inactive: CAKI-1 22 µM | COLO 205 59.6 µM | K562 34.8 µM | KM12 36.8 µM | M14 36.1 µM | MOLT-4 21.7 µM | Malme-3M 35.2 µM | NCI-H226 > 100 µM | NCI-H23 31.7 µM | SF-295 43.9 µM | SF-539 40 µM | SK-MEL-2 25.4 µM | SK-OV-3 73.3 µM | UACC-62 42.8 µM

C=C(C#N)C1OCC2OC(C)(C)OC21 (stereo not drawn)
inactive: A498 22.2 µM | CAKI-1 23.4 µM | COLO 205 15.4 µM | HOP-92 24 µM | K562 28.1 µM | KM12 33.3 µM | M14 15.7 µM | MOLT-4 15.7 µM | NCI-H23 18.6 µM | SF-295 45.9 µM | SF-539 16.1 µM | SK-MEL-2 27.4 µM | SK-OV-3 50.6 µM | SNB-75 20.1 µM | UACC-62 17.3 µM

CC1=NN(C(=O)CC(=O)Nc2ccccc2F)C(=O)C1/N=N/c1ccccc1[N+](=O)[O-] (stereo not drawn)
inactive: CAKI-1 75.5 µM | COLO 205 > 100 µM | K562 > 100 µM | KM12 > 100 µM | M14 > 100 µM | MOLT-4 73.8 µM | Malme-3M > 100 µM | NCI-H226 > 100 µM | NCI-H23 94.6 µM | SF-295 > 100 µM | SF-539 58.7 µM | SK-MEL-2 > 100 µM | SK-OV-3 > 100 µM | SNB-75 > 100 µM | UACC-62 26.2 µM

C=C1CN2CCc3c([nH]c4ccccc34)C2CC1CC(=O)N(C)C (stereo not drawn)
inactive: CAKI-1 > 309 µM | COLO 205 > 309 µM | HOP-92 126 µM | K562 > 309 µM | KM12 > 309 µM | MOLT-4 > 309 µM | Malme-3M > 309 µM | NCI-H226 > 309 µM | NCI-H23 > 309 µM | SF-295 > 309 µM | SF-539 > 309 µM | SK-MEL-2 > 309 µM | SK-OV-3 > 309 µM | UACC-62 > 309 µM

CN(C)/C(=N/C(=O)Nc1ccccc1)SCc1ccccc1
inactive: A498 > 100 µM | CAKI-1 > 100 µM | COLO 205 > 100 µM | K562 76.9 µM | KM12 > 100 µM | M14 > 100 µM | MOLT-4 73.3 µM | Malme-3M > 100 µM | NCI-H226 > 100 µM | NCI-H23 > 100 µM | SF-295 > 100 µM | SF-539 > 100 µM | SK-MEL-2 85.1 µM | SK-OV-3 > 100 µM | SNB-75 > 100 µM | UACC-62 > 100 µM

O=C(O)CC12C3C4C5C3C1C5C42 (stereo not drawn)
inactive: A498 > 100 µM | CAKI-1 > 100 µM | COLO 205 > 100 µM | K562 > 100 µM | KM12 > 100 µM | M14 > 100 µM | MOLT-4 > 100 µM | Malme-3M > 100 µM | NCI-H23 > 100 µM | SF-295 > 100 µM | SF-539 > 100 µM | SK-MEL-2 > 100 µM | SK-OV-3 > 100 µM | SNB-75 76.2 µM | UACC-62 > 100 µM

CC1(Cl)C(=O)NC(=O)N(C2CC(N=[N+]=[N-])C(CO)O2)C1N=[N+]=[N-] (stereo not drawn)
inactive: A498 > 100 µM | CAKI-1 > 100 µM | COLO 205 > 100 µM | HOP-92 > 100 µM | K562 > 100 µM | KM12 > 100 µM | M14 > 100 µM | MOLT-4 > 100 µM | Malme-3M > 100 µM | NCI-H23 > 100 µM | SF-295 > 100 µM | SF-539 > 100 µM | SK-MEL-2 > 100 µM | SK-OV-3 > 100 µM | SNB-75 > 100 µM | UACC-62 > 100 µM

CC(=O)/C(=C\c1ccco1)C(=O)Nc1ccccc1
inactive: CAKI-1 > 100 µM | HOP-92 > 100 µM | K562 > 100 µM | KM12 > 100 µM | M14 > 100 µM | MOLT-4 > 100 µM | Malme-3M > 100 µM | NCI-H23 > 100 µM | SF-295 > 100 µM | SF-539 > 100 µM | SK-MEL-2 > 100 µM | SK-OV-3 > 100 µM | UACC-62 > 100 µM

NNC(=O)C1CCC(=O)N1S(=O)(=O)c1ccccc1 (stereo not drawn)
inactive: CAKI-1 > 100 µM | COLO 205 > 100 µM | HOP-92 > 100 µM | K562 > 100 µM | KM12 > 100 µM | M14 > 100 µM | MOLT-4 > 100 µM | Malme-3M > 100 µM | NCI-H226 > 100 µM | NCI-H23 > 100 µM | SF-295 > 100 µM | SF-539 > 100 µM | SK-MEL-2 > 100 µM | SK-OV-3 > 100 µM | SNB-75 > 100 µM | UACC-62 > 100 µM

CO[C@@H]1C=C[C@@]23c4cc5c(cc4CN(C[C@@H]2O)[C@H]3C1)OCO5 [(+)-HAEMANTHAMINE]
inactive: CAKI-1 6.22 µM | HOP-92 14.3 µM | K562 7.67 µM | KM12 13.5 µM | M14 5.94 µM | MOLT-4 6.47 µM | Malme-3M 14.6 µM | NCI-H226 25.4 µM | NCI-H23 23.6 µM | SF-295 19.1 µM | SF-539 28.6 µM | SK-MEL-2 9.16 µM | SK-OV-3 19.5 µM | SNB-75 9.06 µM | UACC-62 12.9 µM

C[C@H]1C[C@@H]2[C@H]([C@@H](O)C[C@@]3(C)[C@H]2CC[C@]3(O)C(=O)CO)[C@@]2(C)C=CC(=O)C=C12 [METHYLPREDNISOLONE]
inactive: A498 > 100 µM | CAKI-1 > 100 µM | COLO 205 > 100 µM | HOP-92 > 100 µM | K562 > 100 µM | KM12 > 100 µM | M14 > 100 µM | MOLT-4 > 100 µM | Malme-3M > 100 µM | NCI-H226 > 100 µM | NCI-H23 > 100 µM | SK-MEL-2 > 100 µM | SK-OV-3 > 100 µM | UACC-62 > 100 µM

Reference: ChEMBL document CHEMBL1201862, “PubChem BioAssay data set” (2004)
